Assay results reported in patent publication US8507516B2, “Azabicyclic compounds as alpha-7 nicotinic acetylcholine receptor ligands” (Bristol-Myers Squibb Company, priority 2009, dated 2013).
pEC50: −log10 of the molar value. Where two headings read alike, the source gives them in different places.

Biological target: T1, α-7 nicotinic ACh receptor ion channels expressed in mammalian HEK 293 cells (Rattus norvegicus, UniProt Q05941)
T1 construct: expressed in transfected cells
Test: Ca2+-sensitive, fluorescence-based assay for α-7 nicotinic acetylcholine receptor channel function (FLIPR)
Format: cell-based
Experimental: II) A Ca^2+-Sensitive, Fluorescence-Based Assay α-7 for Nicotinic Acetylcholine Receptor Channel Function In Mammalian Cells (“FLIPR”).
Lead compounds are evaluated for agonist activity at α-7, α3β4, α4αβ2, and α1β1δ1ε sub-types of nicotinic ACh receptor ion channels expressed in mammalian HEK 293 cells. Agonist potency and efficacy values are determined from kinetic fluorescence Ca^2+ influx measurements made using a 384 well FLIPR (Fluorescence Image Plate Reader). […] In this assay, channel expressing HEK cell lines seeded in 384 well assay plates are loaded with a membrane permeant fluorescent Ca^2+ indicator dye, whose 510 nm green emission signal increases in response to elevation of intracellular Ca^2+ concentration. The basal fluorescence from the cells is monitored in real time, followed by the acute addition of test compounds.
Reagents: The acetomethoxy (AM) ester of the Ca^2+ indicator dye Fluo-4 was obtained from InVitrogen, (Carlsbad, Calif.). Acetylcholine and all buffer constituents were purchased from Sigma Chemical Company, St. Louis, Mo. G418 and Minimal Essential Medium were purchased from InVitrogen Life Technologies, Carlsbad, Calif. Fetal bovine serum was purchased from (InVitrogen, Carlsbad, Calif.).
HEK-293 cells were grown in Minimal Essential Medium containing 10% (v/v) fetal bovine serum at 37° C. in a 5% CO2 incubator. HEK-293 cells stably expressing the ion channels were grown in the same medium with the addition of 500 μg/ml G418.
HEK-293 cells expressing the ion channels of interest were plated in 384 well, black-walled, clear-bottomed, poly-D-lysine coated plates at a density of ˜20,000 cells/well in 20 μl of Minimal Essential Medium containing 10% (v/v) fetal bovine serum and incubated for 2 days at 29° C. in a 5% CO2 incubator. Prior to assay, cells were loaded with the Fluo-4 AM ester. […] Dye loading was allowed to proceed for 90 minutes at room temperature at which time the dye loading solution was removed and replaced with 40 μl/well of Hanks buffer. Cells loaded with dye were loaded onto a FLIPR384 (Molecular Devices, Sunnyvale, Calif.). Fluo-4 dye was excited using the 488 nm line of an argon laser. Emission was filtered using a 540+/−30 nm bandpass filter. For evaluation of the effects of test compounds using the Ca^2+ flux assay, compounds to be tested were provided in assay ready plates. For nicotinic receptor ion channel expressing cells, the assay was initiated by the addition of 20 μl/well of Hanks buffer containing test compounds. For all assays, data were collected at 1 Hz for 10 seconds (baseline), at which time the compound containing stimulus buffers are added, and further measurements collected at 0.33 Hz for 3 min.
The statistical robustness of the nicotinic receptor Ca^2+ flux assays is determined from blanks and totals wells. […] The raw fluorescence units data files generated on the FLIPR plate reader are automatically exported and processed by in-house data analysis tools. The reduced percent activation data for each concentration of test compound are fit using MathIQ fitting engine (ID Business Solutions Limited, Surrey, UK). Data were analyzed by fitting maximum amplitudes of change in fluorescence, for Ca^2+ flux for a given condition of test compound. […] Test compound efficacy values (Ymax values) are expressed relative to a maximal response to acetylcholine in the total wells.

[1] = FLIPR α7-HI (EC50, nM), agonist potency, Ca2+ influx
[2] = FLIPR α7 actvity rating (EC50, nM), activity class based on EC50, Ca2+ influx
[3] = activity class based on EC50, Ca2+ influx, read-out: FLIPR α7 actvity rating (EC50)
[4] = agonist potency, Ca2+ influx, read-out: FLIPR α7-HI (EC50)

T1 sequence (Q05941 23-502): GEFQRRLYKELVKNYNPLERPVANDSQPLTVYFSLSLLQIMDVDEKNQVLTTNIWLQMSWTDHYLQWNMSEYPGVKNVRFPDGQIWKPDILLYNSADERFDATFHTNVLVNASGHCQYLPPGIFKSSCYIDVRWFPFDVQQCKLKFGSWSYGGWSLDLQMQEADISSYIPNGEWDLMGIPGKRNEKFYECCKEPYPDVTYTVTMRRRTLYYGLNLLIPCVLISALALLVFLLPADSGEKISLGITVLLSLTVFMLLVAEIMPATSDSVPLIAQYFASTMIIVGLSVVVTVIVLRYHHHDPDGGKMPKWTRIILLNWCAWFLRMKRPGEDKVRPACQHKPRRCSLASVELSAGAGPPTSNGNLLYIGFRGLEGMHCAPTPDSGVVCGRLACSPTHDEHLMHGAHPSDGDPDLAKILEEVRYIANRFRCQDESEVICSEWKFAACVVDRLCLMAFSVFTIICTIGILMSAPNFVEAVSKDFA

c1cnc2sc(NC3=NC[C@@]4(C[N@]5CCC[C@H]4C5)O3)nc2c1 (relative stereo) [Example 3, (5S*,5′R*)—N-(thiazolo[5,4-b]pyridin-2-yl)-4′H-1-azaspiro[bicyclo[3.2.1]octane-6,5′-oxazol]-2′-amine] showed an EC50 [1] of 1080 nM and an EC50 [2] of 100 to 1000 nM.

In the case of c1cnc2sc(NC3=NCC4(CN5CCCC4C5)O3)nc2c1 (single isomer, unassigned) [Example 5a], the EC50 [1] was 105 nM and the EC50 [2] was < 100 nM.

c1cnc2sc(NC3=NCC4(CN5CCCC4C5)O3)nc2c1 (single isomer, unassigned) [Example 5b] was tested, and the EC50 [1] was 88 nM and the pEC50 (read-out: FLIPR α7 actvity rating (EC50), activity class based on EC50, Ca2+ influx) was > 7.00.

For c1ccc2cc(NC3=NC[C@@]4(C[N@]5CCC[C@H]4C5)O3)ncc2c1 (single isomer, unassigned) [Example 4, (5S*,5R*)—N-(isoquinolin-3-yl)-4′H-1-azaspiro[bicyclo[3.2.1]octane-6,5′-oxazol]-2′-amine], the EC50 [1] was 820 nM and the EC50 [2] was < 100 nM.

In the case of c1ccc2sc(NC3=NC[C@@]4(C[N@]5CCC[C@H]4C5)O3)nc2c1 (relative stereo) [Example 1, (5S*,5′R*)—N-(benzo[d]thiazol-2-yl)-4′H-1-azaspiro[bicyclo[3.2.1]octane-6,5′-oxazol]-2′-amine], the pEC50 [3] was 4.00 to 6.00 and the pEC50 [4] was < 4.00.

With c1cnc2sc(NC3=NC[C@@]4(C[N@@]5CCC[C@@H]4C5)O3)nc2c1 (relative stereo) [Example 5, (5R*,5′R*)—N-(thiazolo[5,4-b]pyridin-2-yl)-4′H-1-azaspiro[bicyclo[3.2.1]octane-6,5′-oxazol]-2′-amine] the EC50 [1] was 132 nM and the EC50 [2] was < 100 nM.

COc1ccc2nc(NC3=NC[C@@]4(C[N@]5CCC[C@H]4C5)O3)sc2c1 (relative stereo) [Example 2, (5S*,5′R*)—N-(6-methoxybenzo[d]thiazol-2-yl)-4′H-1-azaspiro[bicyclo[3.2.1]octane-6,5′-oxazol]-2′-amine] was tested, and the pEC50 [3] was 6.00 to 7.00 and the pEC50 [4] was 5.69.
